Tests used:
[1] = system: patients with cystic fibrosis; settings: single inhalation, CF patients; cited from earlier work
[2] = system: mucoid CF clinical isolates of P. aeruginosa; settings: elevated CO2 concentrations; titration with bicarbonate

## N=C(N)NCCC[C@H](N)C(=O)O [L-arginine]
[1]
  Exhaled NO: significantly increased
  FEV1: sustained improvement

## O=C(O)O [bicarbonate]
[2]
  Alginate expression: suppressed

## reduced glutathione [GSH]
P. aeruginosa; low oxygen conditions such as within biofilm
  Ability of P. aeruginosa to utilize nitrate, nitrite or nitric oxide for respiration to grow: limits the ability of P. aeruginosa to utilize nitrate, nitrite or nitric oxide for respiration
P. aeruginosa; nitrite and nitric oxide in the presence of GSH
  Aerobic growth of P. aeruginosa: inhibit aerobic growth of P. aeruginosa

— patent US20190231686A1, “METHODS FOR TREATING CYSTIC FIBROSIS AND OTHER DISEASES AFFECTING MUCOSAL SURFACES” (priority 2016, published 2019)
